Assay results from US10081662B2, “Modified relaxin B chain peptides” (The Florey Institute of Neuroscience and Mental Health, priority 2014, dated 2018).
Peptide text beside a SMILES is read from it.

How the values were obtained:
ERK1/2 = ERK1/2 phosphorylation (AlphaScreen SureFire) in rat renal myofibroblasts endogenously expressing RXFP1; type: cell-based
Description: The inventors then tested the single chain B7-33 C11.23S relaxin-2 peptide for its ability to signal via different pathways, cAMP (see Example 2) and pERK.1/2 on HEK-293T (cells stably expressing RXFP1) and myofibroblast cells (cells endogenously expressing RXFP1) The cAMP assay was conducted as described in Example 2. Phosphorylation of ERK1/2 was determined using AlphaScreen SureFire® assay which is a proprietary, non-radioactive and non-Western proximity assay that relies on singlet oxygen energy transfer (PerkinElmer Inc.). Rat renal fibroblasts (that endogenously express RXFP1 receptor) were seeded into a 96-well plate at a density of 40,000 cells per well and incubated overnight in complete media to allow cell adhesion. Cells were then serum-starved for 4-6 hours followed by native H2 relaxin (100 nM) or B7-33 C11.23S peptide (100 nM) treatment for periods of up to 20 minutes and ERK1/2 activation was quantified using the phospho-ERK1/2 Surefire AlphaScreen kit.

MMP-2 = MMP-2 expression by gelatin zymography in human cardiac fibroblasts; type: cell-based; settings: gelatin zymography and densitometry
[1] = system: rat model of myocardial infarction; assay: Rat model of myocardial infarction-induced heart failure; type: in vivo; settings: vs vehicle
Description: Adult male Sprague-Dawley rats weighing 250-320 g were obtained from Animal Resources Centre, Perth, Wash., Australia. The rats were group housed in a constant temperature of 22±1° C. and a relative humidity of 50-60% under a controlled light-dark cycle of 12 hours. Rats were given access to standard laboratory rat chow and drinking water ad libitum.
Heart failure was induced as previously described (Ruchaya et al., 2014, Exp Physiol 99, 111-122). Breifly, to induce heart failure, rats were anaesthetised with an intramuscular injection of ketamine (60 mg/kg) and medetomide hydrochloride ([…]). A left sided thoracotomy through an opening between the fourth and fifth rib was performed, the heart was exteriorised and the left anterior descending coronary artery was ligated. Anaesthesia was reversed with antipamezole hydrocholide (1 mg/kg). Penicillin (1000 U) and buprenorphine (0.05 mg/kg) was administered to aid post-operative recovery. Animals were left to recover from the surgery under a heating source. Rats were individually housed after the surgery.
Eight weeks after myocardial infarction surgery, rats were randomly assigned to 3 groups (vehicle, H2 and B7-33), re-anaesthetised (2-3% isoflurane) and an osmotic mini-pump (model 2ML4, Alzet, Cupertino, Calif.) implanted intraperitoneally. Vehicle (saline), native H2 relaxin (0.5 mg/kg/day) or B7-33 C11.23S (0.5 mg/kg/day) was continuously administered for 28 days. At the conclusion of treatment, rats were anaesthetized (sodium pentobarbitone, 60 mg/kg i.p.) and the left ventricular end-diastolic pressure determined prior to decapitation and removal of the heart for histological analysis.

[2] = system: mouse model of OVA-induced chronic allergic airway disease; assay: Mouse model of OVA-induced chronic allergic airway disease; type: in vivo; settings: Balb/c mice
Text: Seven to eight-week old male 129SV mice (which are sensitive to tissue injury and fibrosis) and age-matched female Balb/c mice (which are sensitive to changes in airway hyperresponsiveness) were used for the induction of isoproterenol-induced cardiomyopathy and ovalbumin-induced chronic allergic airways disease, respectively. 16 five week-old male C57BL/6 mice were used in the induction of prostate cancer growth. All animals were obtained from Monash Animal Services (Monash University, Clayton, Victoria, Australia) and housed under standard conditions (maintained on an 12 h light-12 h dark lighting cycle with free access to food and water) in the Department of Pharmacology Animal Room at Monash University.
Twenty-four hours after the last vehicle/drug administration, methacholine-induced airway reactivity was assessed by invasive plethysmography as described before (Locke et al. 2007, Am J Respir Mol Biol 36, 625-632; Royce et al. 2009, Endocrinology 150, 2692-2699). Mice were anaesthetized intraperitoneally with 200 μg/g ketamine and 10 μg/g xylazine. Tracheotomy was performed using an 18-gauge tracheotomy tube and jugular vein cannulated with a 0.61 9 0.28 mm polyethylene tube (Microtube Extrusions, North Rocks, NSW, Australia), Mice were then placed in a plethysmograph chamber (Buxco Research Systems, Wilmington, N.C., USA) where increasing concentrations of acetyl-β-methacholine (from 31.25 μg/kg to 500 μg/kg) were delivered intravenously in five doses. After every dose, airway resistance and compliance were measured (Biosystem XA version 2.7.9; Buxco Electronics Inc, Wilmington, N.C., USA). The change in airway resistance calculated by the maximal resistance after each dose minus baseline resistance (phosphate buffered saline alone) was plotted against each dose of methacholine evaluated.
The mid zone of the male mouse heart and largest lung lobe from female Balb/c mice were fixed in 10% neutral buffered formalin for 24-48 h before being processed and embedded routinely in paraffin wax. Representative sections of tissue, 3-5 um each, were taken and stained with either picrosirius red (Samuel et al. 2011 Lab Invest 91, 675-690) for the detection of interstitial collagen or Masson's trichrome (Royce et al, 2009, Endocrinology 150, 2692-2699) for the detection of subepithelial basement membrane collagen deposition).
Changes in picrosirius-red stained interstitial collagen or epithelial thickness and subepithelial collagen (fibrosis) around the airway lumen from Masson's trichrome-stained sections; which were all captured (at ×20 magnification) using a SPOT digital camera (Q Imaging, Burnaby, BC, Canada) and analysed with Image J 1.3 software (National Institutes of Health, Bethesda, Md.). Four to five fields per mid zone of the heart or 4-5 airways (of 150-350 μm in diameter) per mouse were assessed. Epithelial thickness and subepithelial collagen regions were traced with a digital pen and the thickness of each region calculated by the imaging software. Results were expressed as mean thickness ([…]) of the 4-5 airways sampled.
The apical region of the heart or second largest lung lobe from each mouse was treated as described previously (Samuel C S, et at., 2003, FASEB J 17, 121-123; Royce et at. 2009, Endocrinology 150, 2692-2699) for the determination of hydroxyproline content. Hydroxyproline values were estimated based on a standard curve constructed with serial dilutions of a 0.1 mg/mL stock of trans-4-hydroxyproline-L-proline (Sigma-Aldrich). Hydroxyproline values were then converted to collagen content as detailed previously (Samuel CS, et al. 2004. Endocrinology 145, 4125-4133) and, in turn, divided by the dry weight of each corresponding left ventricular or lung tissue assessed to yield collagen concentration (a measure of fibrosis).
The inventors also tested the fibrosis preventing activity of B7-33 C11.23S in a model of chronic allergic airway disease (AAD). […]

CC[C@H](C)[C@H](NC(=O)[C@H](C)NC(=O)[C@@H](NC(=O)[C@H](CCC(N)=O)NC(=O)[C@H](C)NC(=O)[C@H](CCCNC(=N)N)NC(=O)[C@@H](NC(=O)[C@H](CC(C)C)NC(=O)[C@H](CCC(=O)O)NC(=O)[C@H](CCCNC(=N)N)NC(=O)CNC(=O)[C@H](CO)NC(=O)[C@H](CC(C)C)NC(=O)[C@H](CCCCN)NC(=O)[C@@H](NC(=O)[C@@H](N)C(C)C)[C@@H](C)CC)C(C)C)[C@@H](C)CC)C(=O)N[C@@H](CO)C(=O)NCC(=O)N[C@@H](CCSC)C(=O)N[C@@H](CO)C(=O)N[C@H](C(=O)N[C@@H](Cc1c[nH]c2ccccc12)C(=O)N[C@@H](CO)C(=O)N[C@@H](CCCCN)C(=O)N[C@@H](CCCNC(=N)N)C(=O)N[C@@H](CO)C(=O)N[C@@H](CC(C)C)C(N)=O)[C@@H](C)O [B7-33 C11.23S] (H-VIKLSGRELVRAQIAISGMSTWSKRSL-NH2)
pERK potency in rat renal myofibroblast (in words) (ERK1/2; rat renal myofibroblasts natively expressing RXFP1, FIG. 4): very high pERK potency | Time of peak ERK1/2 activation after peptide treatment (ERK1/2; rat renal myofibroblasts, 100 nM peptide): 5 min | ERK1/2 activation, level of efficacy (ERK1/2; rat renal myofibroblasts, 100 nM peptide, up to 20 minutes, FIG. 4): slightly higher level of efficacy as H2 relaxin | Induction of MMP-2 expression (MMP-2): levels similar to those induced by the native H2 relaxin | Percentage of collagen in the interstitial area of the left ventricle ([1]; 0.5 mg/kg/day i.p. mini-pump for 28 days from 8 weeks after MI): significant reduction | Left ventricular end-diastolic pressure (LVEDP) ([1]; 12 weeks after myocardial infarction): reduced | Airway hyper-responsiveness (change in airway resistance to methacholine) ([2]; OVA-induced increase, invasive plethysmography, FIG. 8D): attenuated | Mean airway epithelial thickness ([2]; compared to OVA treatment, FIG. 8B): significantly reduced | Total lung collagen content (hydroxyproline analysis) ([2]; relative to OVA treatment, FIG. 8C): normalised
